Tested on: subjects with mIDH1 advanced AML
Assay: Phase I study: safety and tolerability (TEAE, DLT, MTD, ECG)
Format: in vivo
Protocol: This study was an open-label, nonrandomized, multicenter phase I trial. Subjects were screened at 13 hospital sites in 2 countries (USA and Germany). The study was to consist of dose-escalation followed by dose-expansion. The MTD identified in dose-escalation was to be used in the dose-expansion. If MTD was not reached in dose-escalation, a dose for the expansion would be selected based on available PK, pharmacodynamic, safety, and efficacy data. BAY1436032 was administered twice-daily (BID) in continuous 28-day cycles. In dose-escalation, up to 9 evaluable subjects could be enrolled per cohort, with a minimum of 3 dose-limiting toxicity (DLT)-free evaluable subjects required prior to escalating to the next highest dose. Bayesian dose-DLT modeling was performed to help guide dosing decisions.
DLTs were differentially defined for nonhematopoietic versus hematopoietic toxicities. Nonhematopoietic toxicities of ≥grade 3 occurring during the first cycle of treatment were to be considered DLTs with the following exceptions: (1) Alopecia and nausea controlled by medical management; (2) Tumor lysis syndrome if successfully managed clinically and resolved within 7 days without any end-organ damage; (3) Differentiation syndrome (DS) if successfully managed clinically and resolved within 7 days without any end-organ damage; (4) Asymptomatic ≥grade 3 electrolyte abnormalities not considered clinically significant by the investigator. […] For certain toxicities such as laboratory assessments without a clear clinical correlate, a discussion between the investigator and the sponsor determined whether the adverse event (AE) should be assessed as a DLT.
DLTs identified during the first cycle of treatment were used to guide dose-escalation decisions and to determine the MTD, and if safety issues appeared in subsequent cycles they were also to be considered. Hydroxyurea was permitted during the first cycle if white blood cell (WBC) exceeded 20 × 10^9/L and was also permitted for treatment of DS.
Safety and tolerability were evaluated by analysis of adverse events, physical examinations, vital signs, ECOG performance status, and various laboratory assessments. For safety monitoring, subjects were scheduled for clinic visits every week for the initial three cycles of treatment, after which time visits could be reduced to every-other-week with investigator and sponsor agreement. Cardiac function was assessed with triplicate 12-lead electrocardiograms (ECG) at screening, C1-D1, C1-D2, C1-D15, D1 of every subsequent cycle, and at treatment end. […] AEs are presented by the Medical Dictionary for Regulatory Activities (MedDRA) v21.1.

SMILES: C[C@H]1C[C@@H](n2c(Nc3ccc(OC(F)(F)F)cc3)nc3cc(CCC(=O)O)ccc32)CC(C)(C)C1 [BAY1436032]
- Related TEAE Decreased appetite Grade 1 (300 mg BID, n=7): 1
- Related TEAE Decreased appetite Grade 2 (300 mg BID, n=7): 1
- Related TEAE Diarrhea Grade 2 (300 mg BID, n=7): 0
- Related TEAE Differentiation syndrome Grade 2 (300 mg BID, n=7): 0
- Related TEAE Differentiation syndrome Grade 3 (300 mg BID, n=7): 0
- Related TEAE Dyspnea Grade 1 (300 mg BID, n=7): 1
- Related TEAE Dyspnea Grade 2 (300 mg BID, n=7): 1
- Related TEAE Fatigue Grade 1 (300 mg BID, n=7): 0
- Related TEAE Fatigue Grade 2 (300 mg BID, n=7): 1
- Related TEAE Fatigue Grade 3 (300 mg BID, n=7): 0
- Related TEAE Hypomagnesaemia Grade 1 (300 mg BID, n=7): 1
- Related TEAE Nausea Grade 1 (300 mg BID, n=7): 1
- Related TEAE Nausea Grade 2 (300 mg BID, n=7): 1
- Related TEAE Sinus tachycardia Grade 1 (300 mg BID, n=7): 1
- Related TEAE Vomiting Grade 1 (300 mg BID, n=7): 2
- TEAE Abdominal pain upper Grade 1 (300 mg BID, n=7): 0
- TEAE Abdominal pain upper Grade 2 (300 mg BID, n=7): 0
- TEAE Acute kidney injury Grade 1 (300 mg BID, n=7): 1
- TEAE Acute kidney injury Grade 2 (300 mg BID, n=7): 1
- TEAE Acute kidney injury Grade 3 (300 mg BID, n=7): 0
- TEAE Anaemia Grade 3 (300 mg BID, n=7): 0
- TEAE Anaemia Grade 4 (300 mg BID, n=7): 1
- TEAE Anxiety Grade 1 (300 mg BID, n=7): 1
- TEAE Anxiety Grade 2 (300 mg BID, n=7): 0
- TEAE Arthralgia Grade 1 (300 mg BID, n=7): 0
- TEAE Arthralgia Grade 2 (300 mg BID, n=7): 0
- TEAE Constipation Grade 1 (300 mg BID, n=7): 0
- TEAE Constipation Grade 2 (300 mg BID, n=7): 1
- TEAE Contusion Grade 1 (300 mg BID, n=7): 1
- TEAE Contusion Grade 2 (300 mg BID, n=7): 0
- TEAE Cough Grade 1 (300 mg BID, n=7): 2
- TEAE Cough Grade 2 (300 mg BID, n=7): 1
- TEAE Decreased appetite Grade 1 (300 mg BID, n=7): 3
- TEAE Decreased appetite Grade 2 (300 mg BID, n=7): 1
- TEAE Decreased appetite Grade 3 (300 mg BID, n=7): 0
- TEAE Diarrhea Grade 1 (300 mg BID, n=7): 4
- TEAE Diarrhea Grade 2 (300 mg BID, n=7): 0
- TEAE Dry skin Grade 1 (300 mg BID, n=7): 2
- TEAE Dyspnoea Grade 1 (300 mg BID, n=7): 2
- TEAE Dyspnoea Grade 2 (300 mg BID, n=7): 1
- TEAE Dyspnoea Grade 3 (300 mg BID, n=7): 2
- TEAE Epistaxis Grade 1 (300 mg BID, n=7): 0
- TEAE Epistaxis Grade 2 (300 mg BID, n=7): 0
- TEAE Epistaxis Grade 3 (300 mg BID, n=7): 0
- TEAE Fall Grade 1 (300 mg BID, n=7): 0
- TEAE Fatigue Grade 1 (300 mg BID, n=7): 2
- TEAE Fatigue Grade 2 (300 mg BID, n=7): 1
- TEAE Fatigue Grade 3 (300 mg BID, n=7): 1
- TEAE Febrile neutropenia Grade 3 (300 mg BID, n=7): 2
- TEAE General physical health deterioration Grade 3 (300 mg BID, n=7): 0
- TEAE General physical health deterioration Grade 5 (300 mg BID, n=7): 0
- TEAE Gingivitis Grade 1 (300 mg BID, n=7): 2
- TEAE Haematuria Grade 1 (300 mg BID, n=7): 1
- TEAE Haematuria Grade 2 (300 mg BID, n=7): 0
- TEAE Haematuria Grade 3 (300 mg BID, n=7): 0
- TEAE Headache Grade 1 (300 mg BID, n=7): 1
- TEAE Headache Grade 2 (300 mg BID, n=7): 2
- TEAE Headache Grade 3 (300 mg BID, n=7): 0
- TEAE Hyperkalaemia Grade 1 (300 mg BID, n=7): 1
- TEAE Hyperkalaemia Grade 4 (300 mg BID, n=7): 0
- TEAE Hypertension Grade 2 (300 mg BID, n=7): 0
- TEAE Hypertension Grade 3 (300 mg BID, n=7): 0
- TEAE Hyperuricaemia Grade 1 (300 mg BID, n=7): 0
- TEAE Hyperuricaemia Grade 3 (300 mg BID, n=7): 0
- TEAE Hypokalaemia Grade 1 (300 mg BID, n=7): 2
- TEAE Hypokalaemia Grade 2 (300 mg BID, n=7): 0
- TEAE Hypokalaemia Grade 3 (300 mg BID, n=7): 1
- TEAE Hyponatraemia Grade 1 (300 mg BID, n=7): 2
- TEAE Hyponatraemia Grade 3 (300 mg BID, n=7): 0
- TEAE Hypophosphataemia Grade 1 (300 mg BID, n=7): 0
- TEAE Hypophosphataemia Grade 2 (300 mg BID, n=7): 1
- TEAE Leukocytosis Grade 2 (300 mg BID, n=7): 1
- TEAE Leukocytosis Grade 3 (300 mg BID, n=7): 1
- TEAE Lung infection Grade 3 (300 mg BID, n=7): 1
- TEAE Lung infection Grade 5 (300 mg BID, n=7): 1
- TEAE Nausea Grade 1 (300 mg BID, n=7): 1
- TEAE Nausea Grade 2 (300 mg BID, n=7): 1
- TEAE Nausea Grade 3 (300 mg BID, n=7): 0
- TEAE Oedema peripheral Grade 1 (300 mg BID, n=7): 3
- TEAE Oedema peripheral Grade 3 (300 mg BID, n=7): 1
- TEAE Pain in extremity Grade 1 (300 mg BID, n=7): 1
- TEAE Pain in extremity Grade 2 (300 mg BID, n=7): 0
- TEAE Pneumonia Grade 1 (300 mg BID, n=7): 0
- TEAE Pneumonia Grade 2 (300 mg BID, n=7): 1
- TEAE Pneumonia Grade 3 (300 mg BID, n=7): 1
- TEAE Pneumonia fungal Grade 2 (300 mg BID, n=7): 0
- TEAE Pneumonia fungal Grade 3 (300 mg BID, n=7): 0
- TEAE Pneumonia fungal Grade 4 (300 mg BID, n=7): 0
- TEAE Productive cough Grade 1 (300 mg BID, n=7): 0
- TEAE Productive cough Grade 2 (300 mg BID, n=7): 0
- TEAE Pyrexia Grade 1 (300 mg BID, n=7): 0
- TEAE Pyrexia Grade 2 (300 mg BID, n=7): 0
- TEAE Pyrexia Grade 3 (300 mg BID, n=7): 0
- TEAE Rash Grade 1 (300 mg BID, n=7): 0
- TEAE Rash Grade 2 (300 mg BID, n=7): 0
- TEAE Sepsis Grade 4 (300 mg BID, n=7): 2
- TEAE Sepsis Grade 5 (300 mg BID, n=7): 1
- TEAE Sinus tachycardia Grade 1 (300 mg BID, n=7): 2
- TEAE Thrombocytopenia Grade 4 (300 mg BID, n=7): 0
- TEAE Vomiting Grade 1 (300 mg BID, n=7): 3
- TEAE Weight decreased Grade 1 (300 mg BID, n=7): 2
- TEAE Weight decreased Grade 2 (300 mg BID, n=7): 0
- TEAE Weight decreased Grade 3 (300 mg BID, n=7): 0
- Related TEAE Decreased appetite Grade 1 (600 mg BID, n=4): 0
- Related TEAE Decreased appetite Grade 2 (600 mg BID, n=4): 0
- Related TEAE Diarrhea Grade 2 (600 mg BID, n=4): 0
- Related TEAE Differentiation syndrome Grade 2 (600 mg BID, n=4): 0
- Related TEAE Differentiation syndrome Grade 3 (600 mg BID, n=4): 0
- Related TEAE Dyspnea Grade 1 (600 mg BID, n=4): 0
- Related TEAE Dyspnea Grade 2 (600 mg BID, n=4): 0
- Related TEAE Fatigue Grade 1 (600 mg BID, n=4): 1
- Related TEAE Fatigue Grade 2 (600 mg BID, n=4): 0
- Related TEAE Fatigue Grade 3 (600 mg BID, n=4): 0
- Related TEAE Hypomagnesaemia Grade 1 (600 mg BID, n=4): 0
- Related TEAE Nausea Grade 1 (600 mg BID, n=4): 1
- Related TEAE Nausea Grade 2 (600 mg BID, n=4): 0
- Related TEAE Sinus tachycardia Grade 1 (600 mg BID, n=4): 0
- Related TEAE Vomiting Grade 1 (600 mg BID, n=4): 1
- TEAE Abdominal pain upper Grade 1 (600 mg BID, n=4): 0
- TEAE Abdominal pain upper Grade 2 (600 mg BID, n=4): 0
- TEAE Acute kidney injury Grade 1 (600 mg BID, n=4): 0
- TEAE Acute kidney injury Grade 2 (600 mg BID, n=4): 0
- TEAE Acute kidney injury Grade 3 (600 mg BID, n=4): 1
- TEAE Anaemia Grade 3 (600 mg BID, n=4): 1
- TEAE Anaemia Grade 4 (600 mg BID, n=4): 0
- TEAE Anxiety Grade 1 (600 mg BID, n=4): 0
- TEAE Anxiety Grade 2 (600 mg BID, n=4): 0
- TEAE Arthralgia Grade 1 (600 mg BID, n=4): 0
- TEAE Arthralgia Grade 2 (600 mg BID, n=4): 0
- TEAE Constipation Grade 1 (600 mg BID, n=4): 0
- TEAE Constipation Grade 2 (600 mg BID, n=4): 0
- TEAE Contusion Grade 1 (600 mg BID, n=4): 0
- TEAE Contusion Grade 2 (600 mg BID, n=4): 0
- TEAE Cough Grade 1 (600 mg BID, n=4): 1
- TEAE Cough Grade 2 (600 mg BID, n=4): 0

— publication PMC7584476, “Safety and efficacy of BAY1436032 in IDH1-mutant AML: phase I study results” (Leukemia, 2020)
